In ChEMBL document CHEMBL1153217, “Antitubercular potential of some semisynthetic analogues of phytol” (Bioorg Med Chem Lett, 2010):
≈ marks a conversion by molar mass, not a printed value. Calls of active or inactive are those of the source. No cut-off for these calls is given here.

Tests used:
[1] = test system: Mycobacterium tuberculosis; test: Antitubercular activity against Mycobacterium tuberculosis H37Rv by BACTEC460 radiometric susceptibility assay; format: functional
[2] = test system: Mycobacterium tuberculosis; test: Antitubercular activity against Mycobacterium tuberculosis H37Rv at 500 ug/ml by BACTEC460 radiometric susceptibility assay; format: functional, organism-based
Mus musculus [3] = test: Toxicity in Swiss albino mouse assessed as total SGPT level 300 mg/kg, po (reference value: 8.13 +/- 0.79U/L); format: organism-based; parameters: dose 300 mg/kg, route oral; conditions: in vivo
Mus musculus [4] = test: Toxicity in Swiss albino mouse assessed as total serum triglyceride level 300 mg/kg, po (reference value: 72.43 +/- 8.40 mg/dl); format: organism-based; parameters: dose 300 mg/kg, route oral; conditions: in vivo
Mus musculus [5] = test: Toxicity in Swiss albino mouse assessed as total serum creatinine level 300 mg/kg, po (reference value: 0.71 +/- 0.14 mg/dl); format: organism-based; parameters: dose 300 mg/kg, route oral; conditions: in vivo
Mus musculus [6] = test: Toxicity in Swiss albino mouse assessed as total serum creatinine level 50 mg/kg, po (reference value: 0.71 +/- 0.14 mg/dl); format: organism-based; parameters: dose 50 mg/kg, route oral; conditions: in vivo
Mus musculus [7] = test: Toxicity in Swiss albino mouse assessed as total SGOT level 50 mg/kg, po (reference value: 8.13 +/- 0.79 U/L); format: organism-based; parameters: dose 50 mg/kg, route oral; conditions: in vivo
Mus musculus [8] = test: Toxicity in Swiss albino mouse assessed as total WBC level 50 mg/kg, po (reference value: 10.71 +/- 2.47 thousand/mm'3); format: organism-based; parameters: dose 50 mg/kg, route oral; conditions: in vivo
Mus musculus [9] = test: Toxicity in Swiss albino mouse assessed as total RBC count 5 mg/kg, po (reference value: 6.24 +/- 0.51 millions/mm'3); format: organism-based; parameters: dose 5 mg/kg, route oral; conditions: in vivo
Mus musculus [10] = test: Toxicity in Swiss albino mouse assessed as total serum total cholesterol level 300 mg/kg, po (reference value: 43.25 +/- 4.04 mg/dl); format: organism-based; parameters: dose 300 mg/kg, route oral; conditions: in vivo
Mus musculus [11] = test: Toxicity in Swiss albino mouse assessed as total serum triglyceride level 50 mg/kg, po (reference value: 72.43 +/- 8.40 mg/dl); format: organism-based; parameters: dose 50 mg/kg, route oral; conditions: in vivo
Mus musculus [12] = test: Toxicity in Swiss albino mouse assessed as total SGOT level 300 mg/kg, po (reference value: 8.13 +/- 0.79 U/L); format: organism-based; parameters: dose 300 mg/kg, route oral; conditions: in vivo
Mus musculus [13] = test: Toxicity in Swiss albino mouse assessed as total haemoglobin level 5 mg/kg, po (reference value: 7.54 +/- 1.05 g/dl); format: organism-based; parameters: dose 5 mg/kg, route oral; conditions: in vivo
Mus musculus [14] = test: Toxicity in Swiss albino mouse assessed as total RBC count 50 mg/kg, po (reference value: 6.24 +/- 0.51 millions/mm'3); format: organism-based; parameters: dose 50 mg/kg, route oral; conditions: in vivo
Mus musculus [15] = test: Toxicity in Swiss albino mouse assessed as body weight at 5 mg/kg, po (reference value: 23.56+/-1.547 g); format: organism-based; parameters: dose 5 mg/kg, route oral; conditions: in vivo
Mus musculus [16] = test: Toxicity in Swiss albino mouse assessed as total SGPT level 5 mg/kg, po (reference value: 8.13 +/- 0.79 U/L); format: organism-based; parameters: dose 5 mg/kg, route oral; conditions: in vivo
Mus musculus [17] = test: Toxicity in Swiss albino mouse assessed as body weight at 50 mg/kg, po (reference value: 23.56+/-1.547 g); format: organism-based; parameters: dose 50 mg/kg, route oral; conditions: in vivo
Mus musculus [18] = test: Toxicity in Swiss albino mouse assessed as total SGPT level 50 mg/kg, po (reference value: 8.13 +/- 0.79 U/L); format: organism-based; parameters: dose 50 mg/kg, route oral; conditions: in vivo
Mus musculus [19] = test: Toxicity in Swiss albino mouse assessed as total haemoglobin level 50 mg/kg, po (reference value: 7.54 +/- 1.05 g/dl); format: organism-based; parameters: dose 50 mg/kg, route oral; conditions: in vivo
Mus musculus [20] = test: Toxicity in Swiss albino mouse assessed as total haemoglobin level 300 mg/kg, po (reference value: 7.54 +/- 1.05 g/dl); format: organism-based; parameters: dose 300 mg/kg, route oral; conditions: in vivo
Mus musculus [21] = test: Toxicity in Swiss albino mouse assessed as total serum creatinine level 5 mg/kg, po (reference value: 0.71 +/- 0.14 mg/dl); format: organism-based; parameters: dose 5 mg/kg, route oral; conditions: in vivo
Mus musculus [22] = test: Toxicity in Swiss albino mouse assessed as total WBC level 5 mg/kg, po (reference value: 10.71 +/- 2.47 thousand/mm'3); format: organism-based; parameters: dose 5 mg/kg, route oral; conditions: in vivo
Mus musculus [23] = test: Toxicity in Swiss albino mouse assessed as total serum total cholesterol level 50 mg/kg, po (reference value: 43.25 +/- 4.04 mg/dl); format: organism-based; parameters: dose 50 mg/kg, route oral; conditions: in vivo
Mus musculus [24] = test: Toxicity in Swiss albino mouse assessed as body weight at 300 mg/kg, po (reference value: 23.56+/-1.547 g); format: organism-based; parameters: dose 300 mg/kg, route oral; conditions: in vivo
Mus musculus [25] = test: Toxicity in Swiss albino mouse assessed as total WBC level 300 mg/kg, po (reference value: 10.71 +/- 2.47 thousand/mm'3); format: organism-based; parameters: dose 300 mg/kg, route oral; conditions: in vivo
Mus musculus [26] = test: Toxicity in Swiss albino mouse assessed as total SGOT level 5 mg/kg, po (reference value: 8.13 +/- 0.79 U/L); format: organism-based; parameters: dose 5 mg/kg, route oral; conditions: in vivo
Mus musculus [27] = test: Toxicity in Swiss albino mouse assessed as total serum total cholesterol level 5 mg/kg, po (reference value: 43.25 +/- 4.04 mg/dl); format: organism-based; parameters: dose 5 mg/kg, route oral; conditions: in vivo
Mus musculus [28] = test: Toxicity in Swiss albino mouse assessed as total RBC count 300 mg/kg, po (reference value: 6.24 +/- 0.51 millions/mm'3); format: organism-based; parameters: dose 300 mg/kg, route oral; conditions: in vivo
Mus musculus [29] = test: Toxicity in Swiss albino mouse assessed as total serum triglyceride level 5 mg/kg, po (reference value: 72.43 +/- 8.40 mg/dl); format: organism-based; parameters: dose 5 mg/kg, route oral; conditions: in vivo

## CO[C@H]1/C=C/O[C@@]2(C)Oc3c(C)c(O)c4c(O)c(c(/C=N/N5CCN(C)CC5)c(O)c4c3C2=O)NC(=O)/C(C)=C\C=C\[C@H](C)[C@H](O)[C@@H](C)[C@@H](O)[C@@H](C)[C@H](OC(C)=O)[C@@H]1C [RIFAMPIN]
[1]
  MIC: 2 µg/mL (≈ 2.43 µM)

## C/C(=C\CO)CCCC(C)CCCC(C)CCCC(C)C (stereo unspecified)
[1]
  MIC: 100 µg/mL (≈ 337 µM)

## CC(=O)OC/C=C(\C)CCCC(C)CCCC(C)CCCC(C)C (stereo unspecified)
[2]
  MIC: inactive

## C/C(=C\COC/C=C(\C)CCCC(C)CCCC(C)CCCC(C)C)CCCC(C)CCCC(C)CCCC(C)C (stereo unspecified)
[2]
  MIC: inactive

## C/C(=C\CBr)CCCC(C)CCCC(C)CCCC(C)C (stereo unspecified)
[2]
  MIC: inactive

## COc1cc(/C=C/C(O)=C/C(=O)/C=C/c2ccc(OC/C=C(\C)CCCC(C)CCCC(C)CCCC(C)C)cc2)ccc1OC/C=C(\C)CCCC(C)CCCC(C)CCCC(C)C (stereo unspecified)
[2]
  MIC: inactive

## C/C(=C\COC=O)CCCC(C)CCCC(C)CCCC(C)C (stereo unspecified)
[1]
  MIC: 500 µg/mL (≈ 1540 µM)

## C/C(=C\CN=[N+]=[N-])CCCC(C)CCCC(C)CCCC(C)C (stereo unspecified)
[2]
  MIC: inactive

## C/C(=C\C=N\O)CCCC(C)CCCC(C)CCCC(C)C (stereo unspecified)
[1]
  MIC: 25 µg/mL (≈ 80.8 µM)

## CN[C@@H]1[C@H](O[C@H]2[C@H](O[C@H]3[C@H](O)[C@@H](O)[C@H](N=C(N)N)[C@@H](O)[C@@H]3N=C(N)N)O[C@@H](C)[C@]2(O)C=O)O[C@@H](CO)[C@H](O)[C@H]1O [STREPTOMYCIN]
[1]
  MIC: 2 µg/mL (≈ 3.44 µM)

## CCOC(=O)/C=C/CO/N=C/C=C(\C)CCCC(C)CCCC(C)CCCC(C)C (stereo unspecified)
Mus musculus [3]
  Activity: 11.36 U/L
Mus musculus [4]
  Activity: 68.95 mg/dL
Mus musculus [5]
  Activity: 1.2 mg/dL
Mus musculus [6]
  Activity: 0.59 mg/dL
Mus musculus [7]
  Activity: 35.44 U/L
Mus musculus [8]
  Activity: 13460 /mm3
Mus musculus [9]
  Activity: 5980000 /mm3
Mus musculus [10]
  Activity: 62.27 mg/dL
Mus musculus [11]
  Activity: 71.9 mg/dL
Mus musculus [12]
  Activity: 41.73 U/L
Mus musculus [13]
  Activity: 6.41 g/dL
Mus musculus [14]
  Activity: 6580000 /mm3
Mus musculus [15]
  Activity: 25.41 g
Mus musculus [16]
  Activity: 11.15 U/L
Mus musculus [17]
  Activity: 25.39 g
Mus musculus [18]
  Activity: 10.06 U/L
Mus musculus [19]
  Activity: 10.09 g/dL
Mus musculus [20]
  Activity: 5.55 g/dL
Mus musculus [21]
  Activity: 0.61 mg/dL
Mus musculus [22]
  Activity: 14450 /mm3
[1]
  MIC: 15.6 µg/mL (≈ 37 µM)
Mus musculus [23]
  Activity: 54.91 mg/dL
Mus musculus [24]
  Activity: 20.56 g
Mus musculus [25]
  Activity: 14240 /mm3
Mus musculus [26]
  Activity: 28.03 U/L
Mus musculus [27]
  Activity: 57.67 mg/dL
Mus musculus [28]
  Activity: 5140000 /mm3
Mus musculus [29]
  Activity: 84.31 mg/dL

## C/C(=C\C=O)CCCC(C)CCCC(C)CCCC(C)C (stereo unspecified)
[1]
  MIC: 50 µg/mL (≈ 170 µM)

## CC(C)CCCC(C)CCCC(C)CCCC1(C)OC1CO (stereo unspecified)
[2]
  MIC: inactive

## CCOC(=O)CO/N=C/C=C(\C)CCCC(C)CCCC(C)CCCC(C)C (stereo unspecified)
[1]
  MIC: 500 µg/mL (≈ 1260 µM)
